From paper PMC2248166, “Quantitative peptide binding motifs for 19 human and mouse MHC class I molecules derived using positional scanning combinatorial peptide libraries” (Immunome Research, 2008)
Where a SMILES comes first, the peptide text is derived from it.

Key:
HLA B*1503 = HLA B*1503 (Homo sapiens, UniProt P01889, A329T/A93T/A95T/C349S/D201E/D98Y/E187L/E204Q/K202T/N87E/Q94N/R155S/R180L/S121R/S35A/V306I/V36M/Y140S/Y91S); experiment: biochemical; type: binding
HLA B*1501 = HLA B*1501 (Homo sapiens, UniProt P01889, A329T/A93T/A95T/C349S/D201E/D98Y/E187L/E204Q/E69M/E70A/K202T/N87E/Q94N/R155S/R180W/S121R/S35A/S48A/V306I/V36M/Y140S/Y91S); experiment: biochemical; type: binding

| SMILES | IC50 (HLA B*1503) [nM] | IC50 (HLA B*1501) [nM] |
| --- | --- | --- |
| CC(C)C[C@H](NC(=O)[C@H](Cc1ccccc1)NC(=O)[C@@H](NC(=O)[C@H](CCCCN)NC(=O)[C@H](CO)NC(=O)[C@@H](N)CO)C(C)C)C(=O)N[C@@H](CCCCN)C(=O)N[C@@H](C)C(=O)N[C@@H](Cc1ccccc1)C(=O)O [3102.0662] (H-SSKVFLKAF-OH) | 0.37 | 1.7 |
| CC[C@H](C)[C@H](NC(=O)[C@H](CO)NC(=O)[C@@H](N)Cc1c[nH]c2ccccc12)C(=O)N[C@@H](Cc1ccc(O)cc1)C(=O)N[C@@H](CC(C)C)C(=O)N[C@@H](CO)C(=O)N[C@@H](CC(C)C)C(=O)N[C@@H](Cc1c[nH]cn1)C(=O)N[C@@H](Cc1ccc(O)cc1)C(=O)O [3102.0867] (H-WSIYLSLHY-OH) | 8.9 | 48 |
| CC[C@H](C)[C@H](NC(=O)[C@H](CO)NC(=O)[C@@H](N)CC(C)C)C(=O)N[C@@H](CC(N)=O)C(=O)N[C@@H](CO)C(=O)N[C@@H](CO)C(=O)N[C@@H](Cc1ccccc1)C(=O)N[C@@H](Cc1ccc(O)cc1)C(=O)N[C@@H](Cc1ccccc1)C(=O)O [3102.1034] (H-LSINSSFYF-OH) | 4.8 | 1 |
| CC(C)C[C@H](NC(=O)[C@@H](NC(=O)[C@H](CO)NC(=O)[C@@H](NC(=O)[C@H](CC(N)=O)NC(=O)[C@H](CC(C)C)NC(=O)[C@@H](N)CO)[C@@H](C)O)[C@@H](C)O)C(=O)NCC(=O)N[C@@H](Cc1ccccc1)C(=O)O [3102.1051] (H-SLNTSTLGF-OH) | 13 | 1.7 |
| CC[C@H](C)[C@H](NC(=O)[C@H](Cc1c[nH]cn1)NC(=O)[C@H](CO)NC(=O)[C@@H](NC(=O)[C@@H](NC(=O)[C@H](Cc1ccc(O)cc1)NC(=O)[C@H](C)NC(=O)[C@H](CCSC)NC(=O)[C@@H](N)Cc1ccccc1)[C@@H](C)O)[C@@H](C)O)C(=O)O [3102.1071] (H-FMAYTTSHI-OH) | 7.6 | 133 |
| CC[C@H](C)[C@H](N)C(=O)N[C@@H](CO)C(=O)N[C@H](C(=O)N[C@@H](CC(C)C)C(=O)N[C@H](C(=O)NCC(=O)N[C@@H](CO)C(=O)N[C@@H](CO)C(=O)N[C@H](C(=O)O)[C@@H](C)CC)[C@@H](C)O)C(C)C [3102.1072] (H-ISVLTGSSI-OH) | 25 | 34 |
| CC(C)C[C@H](NC(=O)[C@@H](N)CCCNC(=N)N)C(=O)N[C@@H](CC(N)=O)C(=O)N1CCC[C@H]1C(=O)N[C@@H](CCC(=O)O)C(=O)N[C@H](C(=O)N[C@@H](CO)C(=O)N[C@@H](Cc1ccc(O)cc1)C(=O)N[C@@H](Cc1ccccc1)C(=O)O)C(C)C [3102.1097] (H-RLNPEVSYF-OH) | 0.32 | 0.3 |
| CC[C@H](C)[C@H](NC(=O)[C@H](CCC(N)=O)NC(=O)[C@@H](N)CO)C(=O)N[C@H](C(=O)N[C@H](C(=O)N[C@@H](CC(C)C)C(=O)N[C@H](C(=O)N[C@@H](C)C(=O)N[C@@H](Cc1ccccc1)C(=O)O)[C@@H](C)O)[C@@H](C)O)[C@@H](C)CC [3102.1111] (H-SQIITLTAF-OH) | 0.79 | 1 |
| CC(C)[C@H](NC(=O)[C@H](CCC(N)=O)NC(=O)[C@@H](N)CO)C(=O)N[C@@H](CCCCN)C(=O)N[C@@H](CS)C(=O)N[C@@H](CS)C(=O)N[C@@H](Cc1c[nH]cn1)C(=O)N[C@@H](Cc1ccc(O)cc1)C(=O)N[C@@H](Cc1ccccc1)C(=O)O [3102.1126] (H-SQVKCCHYF-OH) | 0.92 | 0.92 |
| CSCC[C@H](NC(=O)[C@@H](N)C(C)C)C(=O)N[C@H](C(=O)N[C@H](C(=O)N[C@@H](CO)C(=O)N[C@@H](CCCCN)C(=O)N1CCC[C@H]1C(=O)N[C@@H](CC(C)C)C(=O)N[C@@H](Cc1ccccc1)C(=O)O)[C@@H](C)O)C(C)C [3102.1148] (H-VMVTSKPLF-OH) | 8.8 | 16 |
| CSCC[C@H](NC(=O)[C@H](CO)NC(=O)[C@H](CCSC)NC(=O)[C@@H](N)CCSC)C(=O)N[C@@H](Cc1ccc(O)cc1)C(=O)NCC(=O)N[C@@H](CCCCN)C(=O)N[C@@H](C)C(=O)N[C@@H](Cc1ccccc1)C(=O)O [3102.1173] (H-MMSMYGKAF-OH) | 2.6 | 3.2 |
| CC(C)C[C@H](NC(=O)[C@H](CC(C)C)NC(=O)[C@@H](NC(=O)[C@H](CO)NC(=O)[C@H](Cc1ccc(O)cc1)NC(=O)[C@H](CC(C)C)NC(=O)[C@@H](N)CCC(N)=O)[C@@H](C)O)C(=O)N[C@@H](CO)C(=O)N[C@@H](Cc1ccccc1)C(=O)O [3102.1175] (H-QLYSTLLSF-OH) | 0.57 | 3 |
| CSCC[C@H](NC(=O)[C@H](Cc1ccc(O)cc1)NC(=O)[C@H](CCCCN)NC(=O)[C@H](CO)NC(=O)[C@H](Cc1ccccc1)NC(=O)[C@H](C)NC(=O)[C@@H](N)Cc1ccc(O)cc1)C(=O)N[C@@H](CO)C(=O)N[C@@H](Cc1ccccc1)C(=O)O [3102.1180] (H-YAFSKYMSF-OH) | 1.8 | 9 |
| C[C@@H](O)[C@H](NC(=O)[C@H](CCCCN)NC(=O)[C@H](Cc1ccc(O)cc1)NC(=O)[C@H](CCC(N)=O)NC(=O)[C@@H](N)CCC(=O)O)C(=O)N[C@@H](CCC(=O)O)C(=O)N[C@@H](CO)C(=O)N[C@@H](Cc1ccccc1)C(=O)N[C@@H](Cc1ccccc1)C(=O)O [3102.1224] (H-EQYKTESFF-OH) | 1.8 | 6.6 |
| CSCC[C@H](NC(=O)[C@H](Cc1c[nH]cn1)NC(=O)[C@H](CCC(N)=O)NC(=O)CNC(=O)[C@@H]1CCCN1C(=O)[C@@H]1CCCN1C(=O)[C@H](C)NC(=O)[C@H](CO)NC(=O)[C@@H](N)CS)C(=O)O [3102.1226] (H-CSAPPGQHM-OH) | 24 | 53 |
| CC(C)[C@H](NC(=O)[C@H](Cc1ccccc1)NC(=O)CNC(=O)[C@H](Cc1c[nH]cn1)NC(=O)[C@H](CC(N)=O)NC(=O)[C@H](CCC(N)=O)NC(=O)[C@@H](N)Cc1ccc(O)cc1)C(=O)N[C@@H](CO)C(=O)N[C@@H](Cc1ccccc1)C(=O)O [3102.1231] (H-YQNHGFVSF-OH) | 2.4 | 0.17 |
| CC(C)C[C@H](NC(=O)[C@@H]1CCCN1C(=O)[C@H](CC(N)=O)NC(=O)[C@H](C)NC(=O)[C@@H](N)Cc1ccccc1)C(=O)N[C@@H](CO)C(=O)N[C@@H](CC(N)=O)C(=O)N1CCC[C@H]1C(=O)N[C@@H](Cc1ccccc1)C(=O)O [3102.1245] (H-FANPLSNPF-OH) | 1.9 | 1.7 |
| CC[C@H](C)[C@H](NC(=O)[C@H](CCC(N)=O)NC(=O)[C@@H](N)CO)C(=O)N[C@@H](CCC(=O)O)C(=O)N[C@H](C(=O)NCC(=O)N[C@H](C(=O)N1CCC[C@H]1C(=O)N[C@@H](Cc1ccccc1)C(=O)O)[C@@H](C)O)[C@@H](C)O [3102.1253] (H-SQIETGTPF-OH) | 1.3 | 0.61 |
| CC[C@H](C)[C@H](NC(=O)[C@H](Cc1c[nH]cn1)NC(=O)[C@H](CCCCN)NC(=O)[C@H](CC(N)=O)NC(=O)[C@H](CCSC)NC(=O)[C@@H](N)Cc1ccccc1)C(=O)N[C@@H](CC(C)C)C(=O)N[C@@H](CO)C(=O)N[C@@H](Cc1ccc(O)cc1)C(=O)O [3102.1258] (H-FMNKHILSY-OH) | 0.74 | 1.7 |
| CC(C)C[C@H](NC(=O)[C@H](CO)NC(=O)[C@H](CO)NC(=O)CNC(=O)[C@H](CO)NC(=O)[C@H](CCCCN)NC(=O)[C@H](C)NC(=O)[C@H](CCC(N)=O)NC(=O)[C@@H](N)CC(C)C)C(=O)O [3102.1276] (H-LQAKSGSSL-OH) | 0.33 | 4.6 |
| CC[C@H](C)[C@H](NC(=O)[C@@H](N)Cc1ccccc1)C(=O)N[C@@H](CC(N)=O)C(=O)N[C@@H](CCSC)C(=O)N[C@H](C(=O)NCC(=O)N[C@@H](CC(N)=O)C(=O)N[C@@H](Cc1c[nH]cn1)C(=O)N[C@@H](Cc1ccccc1)C(=O)O)[C@@H](C)O [3102.1288] (H-FINMTGNHF-OH) | – | 16 |
| CC[C@H](C)[C@H](NC(=O)[C@H](CCSC)NC(=O)[C@H](CC(C)C)NC(=O)[C@H](CCSC)NC(=O)[C@@H](N)CCSC)C(=O)NCC(=O)N[C@@H](CC(N)=O)C(=O)N[C@@H](Cc1ccc(O)cc1)C(=O)N[C@@H](Cc1ccccc1)C(=O)O [3102.1301] (H-MMLMIGNYF-OH) | 0.2 | 33 |
| CC[C@H](C)[C@H](NC(=O)[C@H](C)NC(=O)[C@H](CCSC)NC(=O)[C@@H](NC(=O)[C@@H](NC(=O)[C@@H](N)C(C)C)[C@@H](C)CC)[C@@H](C)CC)C(=O)N[C@@H](CC(N)=O)C(=O)N[C@H](C(=O)N[C@@H](Cc1ccccc1)C(=O)O)C(C)C [3102.1303] (H-VIIMAINVF-OH) | – | 26 |
| CC(C)C[C@H](NC(=O)[C@H](C)N)C(=O)N[C@@H](CCCNC(=N)N)C(=O)N1CCC[C@H]1C(=O)N[C@@H](CO)C(=O)N[C@@H](CO)C(=O)N[C@@H](CCC(N)=O)C(=O)N[C@H](C(=O)N[C@@H](Cc1ccccc1)C(=O)O)C(C)C [3102.1320] (H-ALRPSSQVF-OH) | 0.095 | 1.5 |
| CC[C@H](C)[C@H](NC(=O)[C@H](Cc1c[nH]cn1)NC(=O)[C@H](CCC(N)=O)NC(=O)[C@H](CO)NC(=O)[C@H](CCC(=O)O)NC(=O)[C@@H](N)CC(C)C)C(=O)N[C@H](C(=O)N[C@@H](CO)C(=O)N[C@@H](Cc1ccccc1)C(=O)O)[C@@H](C)CC [3102.1322] (H-LESQHIISF-OH) | 28 | 57 |
| CC[C@H](C)[C@H](NC(=O)[C@H](CO)NC(=O)[C@@H](N)Cc1ccccc1)C(=O)N[C@@H](Cc1ccc(O)cc1)C(=O)N[C@@H](CO)C(=O)N[C@H](C(=O)N[C@@H](CO)C(=O)N[C@@H](CS)C(=O)N[C@@H](Cc1ccccc1)C(=O)O)C(C)C [3102.1330] (H-FSIYSVSCF-OH) | 7.6 | 3.1 |
| CC(C)C[C@H](NC(=O)[C@H](CO)NC(=O)[C@@H]1CCCN1C(=O)[C@H](CO)NC(=O)[C@H](Cc1ccccc1)NC(=O)[C@H](CO)NC(=O)[C@@H](N)C(C)C)C(=O)N[C@H](C(=O)N[C@@H](Cc1ccccc1)C(=O)O)[C@@H](C)O [3102.1333] (H-VSFSPSLTF-OH) | 1.2 | 1.3 |
